Several values for one entry are separate records, joined by “and”; a condition that tells them apart may be missing. Identical values can stand only once.
How the values were obtained:
[1] = target: Kappa-type opioid receptor (Cavia porcellus, UniProt P41144)
[2] = target: 5-hydroxytryptamine receptor 2A (Rattus norvegicus, UniProt P14842)
Mu-type opioid receptor = Mu-type opioid receptor (Homo sapiens, UniProt P35372)
[3] = target: Sodium-dependent noradrenaline transporter (Homo sapiens, UniProt P23975)
[4] = target: 5-hydroxytryptamine receptor 7 (Homo sapiens, UniProt P34969)
D(2) dopamine receptor = D(2) dopamine receptor (Homo sapiens, UniProt P14416)
[5] = target: T1, Alpha-1A adrenergic receptor (Homo sapiens, UniProt P35348)
T1 sequence (P35348 whole entry): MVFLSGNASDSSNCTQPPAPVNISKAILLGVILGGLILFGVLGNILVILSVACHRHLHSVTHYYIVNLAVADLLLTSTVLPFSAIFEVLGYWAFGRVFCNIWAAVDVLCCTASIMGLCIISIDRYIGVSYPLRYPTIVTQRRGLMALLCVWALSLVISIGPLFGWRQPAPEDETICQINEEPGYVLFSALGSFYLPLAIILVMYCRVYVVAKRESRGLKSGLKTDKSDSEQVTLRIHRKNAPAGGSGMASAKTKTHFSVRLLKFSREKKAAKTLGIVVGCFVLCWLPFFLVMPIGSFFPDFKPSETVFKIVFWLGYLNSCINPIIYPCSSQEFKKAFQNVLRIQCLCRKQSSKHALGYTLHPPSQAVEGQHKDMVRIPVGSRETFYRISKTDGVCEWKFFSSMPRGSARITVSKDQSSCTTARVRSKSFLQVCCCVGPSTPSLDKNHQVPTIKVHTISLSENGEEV

D(1B) dopamine receptor = D(1B) dopamine receptor (Homo sapiens, UniProt P21918)
[6] = target: T2, Alpha-2C adrenergic receptor (Homo sapiens, UniProt P18825)
T2 sequence (P18825 whole entry): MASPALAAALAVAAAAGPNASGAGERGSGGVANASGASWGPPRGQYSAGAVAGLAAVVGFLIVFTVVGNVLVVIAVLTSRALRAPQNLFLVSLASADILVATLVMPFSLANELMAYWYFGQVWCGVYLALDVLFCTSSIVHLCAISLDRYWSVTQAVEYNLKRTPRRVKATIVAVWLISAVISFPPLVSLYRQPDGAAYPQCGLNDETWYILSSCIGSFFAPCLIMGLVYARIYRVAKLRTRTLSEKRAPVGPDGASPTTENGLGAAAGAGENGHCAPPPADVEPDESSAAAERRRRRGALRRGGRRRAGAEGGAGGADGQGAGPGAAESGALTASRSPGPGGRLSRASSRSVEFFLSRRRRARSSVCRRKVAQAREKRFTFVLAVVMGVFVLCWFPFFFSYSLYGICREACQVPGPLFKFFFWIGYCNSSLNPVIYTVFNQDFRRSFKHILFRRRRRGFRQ

[7] = target: T3, Muscarinic acetylcholine receptor M4 (Homo sapiens, UniProt P08173)
T3 sequence (P08173 whole entry): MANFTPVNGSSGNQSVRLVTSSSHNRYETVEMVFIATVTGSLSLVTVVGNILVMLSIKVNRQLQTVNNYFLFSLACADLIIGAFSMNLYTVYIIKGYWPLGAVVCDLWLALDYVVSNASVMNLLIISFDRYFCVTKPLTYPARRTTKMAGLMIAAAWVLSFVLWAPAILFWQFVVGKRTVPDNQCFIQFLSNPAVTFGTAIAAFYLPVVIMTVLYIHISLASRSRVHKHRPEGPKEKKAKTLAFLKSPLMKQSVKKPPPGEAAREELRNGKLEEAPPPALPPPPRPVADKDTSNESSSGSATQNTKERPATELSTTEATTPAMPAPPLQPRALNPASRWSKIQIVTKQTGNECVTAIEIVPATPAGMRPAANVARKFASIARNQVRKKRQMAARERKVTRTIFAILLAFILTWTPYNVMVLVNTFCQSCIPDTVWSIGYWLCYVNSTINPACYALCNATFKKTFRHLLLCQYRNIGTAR

[8] = target: Glutamate receptor ionotropic, NMDA 1 (Rattus norvegicus, UniProt P35439)
[9] = target: Beta-2 adrenergic receptor (Rattus norvegicus, UniProt P10608)
[10] = target: T4, Alpha-2A adrenergic receptor (Homo sapiens, UniProt P08913)
T4 sequence (P08913 whole entry): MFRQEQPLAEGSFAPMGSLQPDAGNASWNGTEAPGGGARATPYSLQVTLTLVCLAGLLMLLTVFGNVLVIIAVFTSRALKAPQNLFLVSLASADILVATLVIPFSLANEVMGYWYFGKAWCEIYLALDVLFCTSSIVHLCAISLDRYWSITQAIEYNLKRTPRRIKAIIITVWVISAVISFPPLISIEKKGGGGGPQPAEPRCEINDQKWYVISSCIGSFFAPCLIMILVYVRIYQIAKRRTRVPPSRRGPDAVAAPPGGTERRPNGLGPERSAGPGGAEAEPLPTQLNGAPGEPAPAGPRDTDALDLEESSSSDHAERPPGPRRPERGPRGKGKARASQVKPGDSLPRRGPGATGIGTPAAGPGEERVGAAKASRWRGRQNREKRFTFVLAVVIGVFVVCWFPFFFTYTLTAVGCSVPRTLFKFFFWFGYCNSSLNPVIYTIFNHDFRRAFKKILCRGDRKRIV

D(2) dopamine receptor, sequence (P14416 whole entry): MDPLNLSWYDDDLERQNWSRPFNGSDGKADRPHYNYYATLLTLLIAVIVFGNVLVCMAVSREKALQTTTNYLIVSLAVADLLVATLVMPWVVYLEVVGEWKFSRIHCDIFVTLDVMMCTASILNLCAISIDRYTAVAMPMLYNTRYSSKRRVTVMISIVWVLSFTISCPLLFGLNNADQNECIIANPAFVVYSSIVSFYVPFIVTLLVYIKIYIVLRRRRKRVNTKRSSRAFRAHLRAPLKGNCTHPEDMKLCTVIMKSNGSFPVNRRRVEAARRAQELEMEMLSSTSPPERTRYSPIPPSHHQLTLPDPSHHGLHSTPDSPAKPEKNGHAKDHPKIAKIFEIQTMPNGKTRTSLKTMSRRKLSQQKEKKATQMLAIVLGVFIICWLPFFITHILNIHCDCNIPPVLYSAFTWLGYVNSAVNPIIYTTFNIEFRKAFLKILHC
Beta-2 adrenergic receptor, sequence (P10608 whole entry): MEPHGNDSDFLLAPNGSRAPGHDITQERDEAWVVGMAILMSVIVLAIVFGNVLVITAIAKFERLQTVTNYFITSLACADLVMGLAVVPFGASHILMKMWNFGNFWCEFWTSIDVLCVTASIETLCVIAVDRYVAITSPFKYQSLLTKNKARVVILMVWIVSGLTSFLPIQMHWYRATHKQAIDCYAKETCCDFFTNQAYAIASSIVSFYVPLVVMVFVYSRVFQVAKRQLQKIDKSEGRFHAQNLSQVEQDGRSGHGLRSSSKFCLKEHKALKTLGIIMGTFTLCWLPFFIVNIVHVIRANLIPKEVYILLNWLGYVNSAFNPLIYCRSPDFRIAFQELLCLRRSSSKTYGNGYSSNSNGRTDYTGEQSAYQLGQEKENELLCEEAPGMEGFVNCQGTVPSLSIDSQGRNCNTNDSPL
5-hydroxytryptamine receptor 2A, sequence (P14842 whole entry): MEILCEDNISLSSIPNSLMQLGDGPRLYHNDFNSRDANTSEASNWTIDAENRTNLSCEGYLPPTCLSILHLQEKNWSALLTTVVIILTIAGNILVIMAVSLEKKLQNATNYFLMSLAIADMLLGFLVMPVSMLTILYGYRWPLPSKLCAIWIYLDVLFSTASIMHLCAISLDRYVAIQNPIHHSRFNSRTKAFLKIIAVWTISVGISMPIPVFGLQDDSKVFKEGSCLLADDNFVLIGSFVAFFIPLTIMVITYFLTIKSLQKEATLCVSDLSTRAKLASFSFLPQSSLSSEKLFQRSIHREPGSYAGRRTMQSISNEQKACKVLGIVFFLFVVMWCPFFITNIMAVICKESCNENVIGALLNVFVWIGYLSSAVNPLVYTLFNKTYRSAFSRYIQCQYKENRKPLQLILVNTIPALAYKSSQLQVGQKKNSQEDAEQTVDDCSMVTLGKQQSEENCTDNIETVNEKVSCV
Kappa-type opioid receptor, sequence (P41144 whole entry): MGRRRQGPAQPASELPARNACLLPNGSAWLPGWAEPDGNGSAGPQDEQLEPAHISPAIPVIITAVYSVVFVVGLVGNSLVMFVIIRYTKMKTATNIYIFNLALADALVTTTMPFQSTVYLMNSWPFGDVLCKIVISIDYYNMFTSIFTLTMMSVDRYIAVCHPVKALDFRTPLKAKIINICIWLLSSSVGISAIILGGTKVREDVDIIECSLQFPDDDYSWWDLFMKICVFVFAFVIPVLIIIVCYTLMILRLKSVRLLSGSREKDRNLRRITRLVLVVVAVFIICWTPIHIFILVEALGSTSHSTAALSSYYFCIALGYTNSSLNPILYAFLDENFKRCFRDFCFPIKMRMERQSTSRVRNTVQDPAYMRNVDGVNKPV
5-hydroxytryptamine receptor 7, sequence (P34969 whole entry): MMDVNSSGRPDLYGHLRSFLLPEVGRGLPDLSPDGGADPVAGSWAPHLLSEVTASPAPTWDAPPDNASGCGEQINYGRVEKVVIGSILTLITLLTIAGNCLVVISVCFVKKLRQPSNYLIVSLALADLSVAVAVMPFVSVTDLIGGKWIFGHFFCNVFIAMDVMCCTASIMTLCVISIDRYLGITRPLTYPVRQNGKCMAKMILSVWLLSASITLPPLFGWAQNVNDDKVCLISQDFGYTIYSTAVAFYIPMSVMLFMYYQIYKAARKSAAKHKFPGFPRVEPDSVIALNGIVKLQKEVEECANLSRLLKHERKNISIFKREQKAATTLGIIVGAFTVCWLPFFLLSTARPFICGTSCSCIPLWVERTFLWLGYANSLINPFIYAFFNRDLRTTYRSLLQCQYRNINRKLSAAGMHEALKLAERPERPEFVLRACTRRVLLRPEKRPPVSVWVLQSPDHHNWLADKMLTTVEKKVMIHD
D(1B) dopamine receptor, sequence (P21918 whole entry): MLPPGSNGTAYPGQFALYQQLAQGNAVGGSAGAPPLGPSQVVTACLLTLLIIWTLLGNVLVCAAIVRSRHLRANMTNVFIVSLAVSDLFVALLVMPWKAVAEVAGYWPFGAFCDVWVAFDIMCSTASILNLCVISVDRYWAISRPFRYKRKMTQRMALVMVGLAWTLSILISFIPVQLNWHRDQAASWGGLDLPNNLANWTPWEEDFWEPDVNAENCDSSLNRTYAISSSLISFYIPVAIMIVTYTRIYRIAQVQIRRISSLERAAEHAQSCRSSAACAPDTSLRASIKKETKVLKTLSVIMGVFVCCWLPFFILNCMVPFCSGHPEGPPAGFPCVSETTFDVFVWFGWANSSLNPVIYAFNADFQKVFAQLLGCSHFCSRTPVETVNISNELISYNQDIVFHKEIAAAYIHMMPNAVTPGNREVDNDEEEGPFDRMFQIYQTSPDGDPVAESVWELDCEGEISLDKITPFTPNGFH
Mu-type opioid receptor, sequence (P35372 whole entry): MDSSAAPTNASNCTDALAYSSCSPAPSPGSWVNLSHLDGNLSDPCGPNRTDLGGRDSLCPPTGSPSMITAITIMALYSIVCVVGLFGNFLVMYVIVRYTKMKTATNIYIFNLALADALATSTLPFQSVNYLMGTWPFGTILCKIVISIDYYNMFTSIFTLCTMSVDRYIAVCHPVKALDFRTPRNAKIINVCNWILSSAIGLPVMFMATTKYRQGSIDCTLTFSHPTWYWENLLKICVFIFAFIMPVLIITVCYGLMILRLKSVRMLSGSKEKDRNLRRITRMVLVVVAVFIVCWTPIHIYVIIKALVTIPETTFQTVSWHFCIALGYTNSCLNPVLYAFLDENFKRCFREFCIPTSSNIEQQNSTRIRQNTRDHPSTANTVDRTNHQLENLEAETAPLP
Sodium-dependent noradrenaline transporter, sequence (P23975 whole entry): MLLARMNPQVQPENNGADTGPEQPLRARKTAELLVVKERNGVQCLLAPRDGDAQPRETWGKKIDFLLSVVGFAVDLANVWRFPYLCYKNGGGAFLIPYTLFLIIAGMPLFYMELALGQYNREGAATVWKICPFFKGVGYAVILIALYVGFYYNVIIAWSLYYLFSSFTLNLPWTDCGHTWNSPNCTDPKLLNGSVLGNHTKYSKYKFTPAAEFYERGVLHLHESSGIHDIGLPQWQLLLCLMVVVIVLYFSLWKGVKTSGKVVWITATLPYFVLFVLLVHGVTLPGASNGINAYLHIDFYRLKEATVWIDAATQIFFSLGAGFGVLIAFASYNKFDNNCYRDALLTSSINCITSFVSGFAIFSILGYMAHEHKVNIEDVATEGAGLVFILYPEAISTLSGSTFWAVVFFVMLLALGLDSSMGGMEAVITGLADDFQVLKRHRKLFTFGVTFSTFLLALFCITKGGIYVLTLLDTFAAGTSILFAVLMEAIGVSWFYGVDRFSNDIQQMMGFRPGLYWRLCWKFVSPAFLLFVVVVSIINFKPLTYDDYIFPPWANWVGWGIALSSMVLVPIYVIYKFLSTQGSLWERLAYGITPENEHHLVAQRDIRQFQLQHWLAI

SMILES | Ki [1] | Ki [2] | Ki (Mu-type opioid receptor) | Ki [3] | Ki [4] | Ki (D(2) dopamine receptor) | Ki [5] | Ki (D(1B) dopamine receptor) | Ki [6] | Ki [7] | Ki [8] | Ki [9] | Ki [10]
NC(CSSCC(N)C(=O)O)C(=O)O (stereo unspecified) [CAS_595] | > 10 µM | > 10 µM | > 10 µM | > 10 µM | > 10 µM | > 10 µM | > 10 µM | > 10 µM | > 10 µM | > 10 µM | > 10 µM and 3.24 µM | > 10 µM | > 10 µM
N[C@H]1CCSC1=O [NSC_134505] | > 10 µM | > 10 µM | > 10 µM | > 10 µM | > 10 µM | > 10 µM | > 10 µM | > 10 µM | > 10 µM | > 10 µM | > 10 µM | > 10 µM | > 10 µM
N[C@@H](CCS(=O)O)C(=O)O [L-homocysteine sulfinic acid] | > 10 µM | > 10 µM | > 10 µM | > 10 µM | > 10 µM | > 10 µM | > 10 µM | > 10 µM | > 10 µM | > 10 µM | > 10 µM | > 10 µM | > 10 µM
NC(CS(=O)O)C(=O)O (stereo unspecified) [CAS_109] | > 10 µM | > 10 µM | > 10 µM | > 10 µM | > 10 µM | > 10 µM | > 10 µM | > 10 µM | > 10 µM | > 10 µM | > 10 µM | > 10 µM | > 10 µM
N[C@@H]1CCSC1=O [D-homocysteine thiolactone] | > 10 µM | > 10 µM | > 10 µM | > 10 µM | > 10 µM | > 10 µM | > 10 µM | > 10 µM | > 10 µM | > 10 µM | > 10 µM | > 10 µM | > 10 µM
N[C@@H](CCS(=O)(=O)O)C(=O)O (racemic) | > 10 µM | > 10 µM | > 10 µM | > 10 µM | > 10 µM | > 10 µM | > 10 µM | > 10 µM | > 10 µM | > 10 µM | > 10 µM | > 10 µM | > 10 µM

Results, then the compound that gave them:

Ki [1] | Ki [2] | Ki (Mu-type opioid receptor) | Ki [3] | Ki [4] | Ki (D(2) dopamine receptor) | Ki [5] | Ki (D(1B) dopamine receptor) | Ki [6] | Ki [7] | Ki [8] | Ki [9] | Ki [10] | SMILES
> 10 µM | > 10 µM | > 10 µM | > 10 µM | > 10 µM | > 10 µM | > 10 µM | > 10 µM | > 10 µM | > 10 µM | > 10 µM | > 10 µM | > 10 µM | N[C@H](CS(=O)(=O)O)C(=O)O [L-cysteic acid]
> 10 µM | > 10 µM | > 10 µM | > 10 µM | > 10 µM | > 10 µM | > 10 µM | > 10 µM | > 10 µM | > 10 µM | > 10 µM | > 10 µM | > 10 µM | N[C@@H](CCS)C(=O)O (racemic) [CAS_778]
> 10 µM | > 10 µM | > 10 µM | > 10 µM | > 10 µM | > 10 µM | > 10 µM | > 10 µM | > 10 µM | > 10 µM | > 10 µM | > 10 µM | > 10 µM | CSCC[C@@H](N)C(=O)O [CAS_6137]
> 10 µM | > 10 µM | > 10 µM | > 10 µM | > 10 µM | > 10 µM | > 10 µM | > 10 µM | > 10 µM | > 10 µM | > 10 µM | > 10 µM | > 10 µM | N[C@H](CCS(=O)(=O)O)C(=O)O [D-homocysteic acid]
> 10 µM | > 10 µM | > 10 µM | > 10 µM | > 10 µM | > 10 µM | > 10 µM | > 10 µM | > 10 µM | > 10 µM | > 10 µM | > 10 µM | > 10 µM | N[C@H](CCS(=O)O)C(=O)O [D-homocysteine sulfinic acid]
> 10 µM | > 10 µM | > 10 µM | > 10 µM | > 10 µM | > 10 µM | > 10 µM | > 10 µM | > 10 µM | > 10 µM | > 10 µM | > 10 µM | > 10 µM | N[C@@H](CS)C(=O)O [CAS_5862]
